From patent US9045486B2, “Pyrimidone derivatives and their use in the treatment, amelioration or prevention of a viral disease” (priority 2013, dated 2015)

Biological target: T1, influenza A virus (IAV) PA-Nter fragment (amino acids 1-209) (Influenza A virus, UniProt P31343)
T1 construct: PA-Nter fragment (amino acids 1-209); made in house
Assay: FRET endonuclease activity assay
Format: biochemical
Settings: 0.5 μM PA-Nter, 1.6 μM dual-labelled RNA substrate; IC50 from initial reaction velocities (v0)

SMILES	IC50 [µM]
CC(C)N1CCn2c(Cc3ccccc3-c3ccccc3Cl)nc(=O)c(O)c2C1=O	0.657
O=C1NCCn2c(Cc3ccccc3-c3ccccc3)nc(=O)c(O)c21	0.06
CC(C)N1CCn2c(Cc3ccccc3-c3ccccc3)nc(=O)c(O)c2C1=O	0.196
CN1CCn2c(Cc3ccccc3-c3ccccc3Cl)nc(=O)c(O)c2C1=O	0.175
CN1CCn2c(CC3(c4ccccc4)CCCC3)nc(=O)c(O)c2C1=O	0.116
CC(C)N1CCn2c(CC3(c4ccccc4)CCCC3)nc(=O)c(O)c2C1=O	0.093
CN1CCn2c(CC3(c4ccc(Cl)cc4)CCCC3)nc(=O)c(O)c2C1=O	0.16
CC(C)N1CCn2c(CC3(c4ccc(Cl)cc4)CCCC3)nc(=O)c(O)c2C1=O	0.252
CC(N1CCn2c(CC3(c4ccc(Cl)cc4)CCCC3)nc(=O)c(O)c2C1=O)C(F)(F)F (stereo not shown)	0.296
O=C1c2c(O)c(=O)nc(CC3(c4ccc(Cl)cc4)CCCC3)n2CCN1c1ccccc1	1.18
CC(C)N1CCn2c(Cc3cccc4ccccc34)nc(=O)c(O)c2C1=O	1.81
CC(C)N1CCn2c(Cc3cccc(Cl)c3Cl)nc(=O)c(O)c2C1=O	0.35
CC(C)N1CCn2c(Cc3ccccc3-c3cccc(Cl)c3Cl)nc(=O)c(O)c2C1=O	0.37
CC(C)N1CCn2c(Cc3ccccc3-c3ccc(Cl)c(Cl)c3)nc(=O)c(O)c2C1=O	2.51
CC(C)N1CCn2c(Cc3ccccc3-c3ccc(Cl)cc3)nc(=O)c(O)c2C1=O	1.37
COc1ccc(-c2ccccc2)c(Cc2nc(=O)c(O)c3n2CCN(C(C)C)C3=O)c1	0.43
CC(c1ccccc1-c1ccccc1)c1nc(=O)c(O)c2n1CCN(C(C)C)C2=O (stereo not shown)	1.7
CC(C)N1CCn2c(Cc3cscc3-c3ccccc3)nc(=O)c(O)c2C1=O	1.39
CC(c1ccccc1)N1CCn2c(CC3(c4ccc(Cl)cc4)CCCC3)nc(=O)c(O)c2C1=O (stereo not shown)	1.13
CC(C)N1CCn2c(CC(C)(C)c3ccccc3)nc(=O)c(O)c2C1=O	0.25
CC(C)N1CCn2c(CC3(c4ccccc4)CCCCC3)nc(=O)c(O)c2C1=O	0.12
CC(C)N1CCn2c(CC3(c4ccc(Cl)c(Cl)c4)CCCC3)nc(=O)c(O)c2C1=O	0.61
CC(C)N1CCn2c(CC3(c4cccc(Cl)c4)CCCC3)nc(=O)c(O)c2C1=O	0.32

SMILES	IC50 [µM]
CC(C)N1CCn2c(CC3(c4ccc5ccccc5c4)CCCC3)nc(=O)c(O)c2C1=O	0.11
CC(C)N1CCn2c(Cc3ccccc3-c3cccc(F)c3F)nc(=O)c(O)c2C1=O	0.2
CC(C)N1CCn2c([C@@H]3CCC[C@@H]3c3ccccc3)nc(=O)c(O)c2C1=O	0.5
CC(C)N1CCn2c([C@H]3CCC[C@H]3c3ccccc3)nc(=O)c(O)c2C1=O	0.23
CC(C)N1CCn2c(CC(C)(C)n3ccc4ccccc43)nc(=O)c(O)c2C1=O	0.24
CC(C)N1CCn2c(Cc3cc(O)ccc3-c3ccccc3)nc(=O)c(O)c2C1=O	0.146
COc1ccc(-c2ccccc2Cc2nc(=O)c(O)c3n2CCN(C(C)C)C3=O)cc1	0.122
CC(C)N1CCn2c(Cc3ccccc3C3CCCCC3)nc(=O)c(O)c2C1=O	0.114
CC(C)N1CCn2c(Cc3ccccc3-c3ccncc3)nc(=O)c(O)c2C1=O	0.094
CC(C)N1CCn2c(Cc3ccccc3-c3cccc(F)c3)nc(=O)c(O)c2C1=O	0.38
CC(C)N1CCn2c(Cc3ncccc3-c3ccccc3)nc(=O)c(O)c2C1=O	0.38
CC(C)N1CCn2c(Cc3ccccc3-c3ccc(F)c(F)c3)nc(=O)c(O)c2C1=O	1.06
CC(C)c1ccc(-c2ccccc2Cc2nc(=O)c(O)c3n2CCN(C(C)C)C3=O)cc1	0.7
CC(C)N1CCn2c(Cc3ccccc3-c3ccc(F)cc3)nc(=O)c(O)c2C1=O	1.55
CC(C)N1CCn2c(Cc3ccccc3-c3ccc(C#N)cc3)nc(=O)c(O)c2C1=O	0.3
CC(C)N1CCn2c(Cc3ccccc3-c3ccc(C(F)(F)F)c(F)c3)nc(=O)c(O)c2C1=O	0.38
CC(C)N1CCn2c(Cc3ccccc3-c3ccc(C(F)(F)F)cc3)nc(=O)c(O)c2C1=O	0.32
CC(C)N1CCn2c(Cc3ccccc3-c3ccc(OC(F)(F)F)cc3)nc(=O)c(O)c2C1=O	0.55
CC(C)N1CCn2c(Cc3ccccc3-c3ccc4c(c3)OCO4)nc(=O)c(O)c2C1=O	0.229
O=C1c2c(O)c(=O)nc(CC3(c4ccccc4)CCCC3)n2CCN1C1CCCC1	0.521
CSc1ccc(-c2ccccc2Cc2nc(=O)c(O)c3n2CCN(C(C)C)C3=O)cc1	0.116
O=C1c2c(O)c(=O)nc(CC3(c4ccccc4)CCCC3)n2CCN1C1CCC1	0.102
CC(C)(C)CN1CCn2c(CC3(c4ccccc4)CCCC3)nc(=O)c(O)c2C1=O	0.143

SMILES	IC50 [µM]
O=C1c2c(O)c(=O)nc(CC3(c4ccccc4)CCCC3)n2CCN1CC1CC1	0.138
O=C1c2c(O)c(=O)nc(CC3(c4ccccc4)CCCC3)n2CCN1C1COC1	0.134
O=C1c2c(O)c(=O)nc(CC3(c4ccccc4)CCCC3)n2CCN1C1CC1	0.098
O=C1c2c(O)c(=O)nc(CC3(c4ccccc4)CCCC3)n2CCN1C1CCOCC1	0.043
O=C1c2c(OCc3ccccc3)c(=O)nc(CC3(c4ccccc4)CCCC3)n2CCN1C1CCOCC1	> 25
CC(C)N1CCn2c(CC3(c4ccc(C#N)cc4)CCCC3)nc(=O)c(O)c2C1=O	0.041
CC(C)N1CCn2c(CC3(c4cc(Cl)ccc4Cl)CCCC3)nc(=O)c(O)c2C1=O	0.295
CC(C)N1CCn2c(CC3(c4ccc(C(F)(F)F)cc4)CCCC3)nc(=O)c(O)c2C1=O	0.262
CC(C)N1CCn2c(CC3(c4ccccc4)CCC(F)(F)CC3)nc(=O)c(O)c2C1=O	0.084
O=C1c2c(O)c(=O)nc(CC3(c4ccccc4)CCCC3)n2CCN1Cc1ccc(F)cc1	0.422
O=C1c2c(O)c(=O)nc(CC3(c4ccc(Cl)cc4)CCCC3)n2CCN1CC1CC1	0.205
O=C1c2c(OCc3ccccc3)c(=O)nc(CC3(c4ccc(Cl)cc4)CCCC3)n2CCN1CC1CC1	> 25
O=C1c2c(O)c(=O)nc(CC3(c4ccc(Cl)cc4)CCCC3)n2CCN1C1CC1	0.73
O=C1c2c(O)c(=O)nc(CC3(c4cccc5ccccc45)CCCC3)n2CCN1CC1CC1	0.14
CN1CCn2c(CC3(c4cccc5ccccc45)CCCC3)nc(=O)c(O)c2C1=O	0.11
O=C1c2c(O)c(=O)nc(CC3(c4ccc(Cl)cc4)CCCC3)n2CCN1C1CCOCC1	0.06
O=C1c2c(O)c(=O)nc(CC3(c4cccc5ccccc45)CCCC3)n2CCN1C1CCOCC1	0.11
O=C1c2c(O)c(=O)nc(CC3(c4cccc5ccccc45)CCCC3)n2CCN1C1CC1	0.104
O=C1c2c(O)c(=O)nc(CC3(c4cccc5ccccc45)CCCC3)n2CCN1C1COC1	> 25
O=C1c2c(O)c(=O)nc(CC3(c4cccc5ccccc45)CCCC3)n2CCN1Cc1ccccc1	0.67
CN1CCn2c(CC3(n4ccc5cccnc54)CCCC3)nc(=O)c(O)c2C1=O	0.08
CC(C)N1CCn2c(CC3(n4ccc5cccnc54)CCCC3)nc(=O)c(O)c2C1=O	0.02
O=C1c2c(O)c(=O)nc(CC3(n4ccc5cccnc54)CCCC3)n2CCN1CC1CC1	0.141

SMILES	IC50 [µM]
O=C1c2c(OCc3ccccc3)c(=O)nc(CC3(n4ccc5cccnc54)CCCC3)n2CCN1CC1CC1	> 25
O=C1c2c(O)c(=O)nc(CC3(n4ccc5cccnc54)CCCC3)n2CCN1C1COC1	0.108
O=C1c2c(O)c(=O)nc(CC3(n4ccc5cccnc54)CCCC3)n2CCN1C1CC1	0.092
O=C1c2c(O)c(=O)nc(CC3(n4ccc5cccnc54)CCCC3)n2CCN1C1CCC1	0.173
CC(C)N1CCn2c(Cc3ccc(Cl)cc3-c3ccc(F)cc3)nc(=O)c(O)c2C1=O	0.436
CC(C)N1CCn2c(Cc3ccc(Cl)cc3-c3ccc(Cl)cc3)nc(=O)c(O)c2C1=O	0.266
CC(C)N1CCn2c(Cc3ccc(Cl)cc3-c3cccc(F)c3)nc(=O)c(O)c2C1=O	0.058
CC(C)N1CCn2c(Cc3ccc(Cl)cc3-c3cccnc3)nc(=O)c(O)c2C1=O	0.081
CC(C)N1CCn2c(Cc3ccc(Cl)cc3-c3ccncc3)nc(=O)c(O)c2C1=O	0.11
CC(C)N1CCn2c(Cc3ccc(Cl)cc3Br)nc(=O)c(OCc3ccccc3)c2C1=O	> 25
CC(C)N1CCn2c(CC3(c4cccc5ccccc45)CCCC3)nc(=O)c(O)c2C1=O	0.27
CC(C)N1CCn2c(CC3(c4cc(C(F)(F)F)cc(C(F)(F)F)c4)CCCC3)nc(=O)c(O)c2C1=O	0.318
CC(C)N1CCn2c(CC3(c4cccc(C(F)(F)F)c4)CCCC3)nc(=O)c(O)c2C1=O	0.46
CC(C)N1CCn2c(-c3ccccn3)nc(=O)c(O)c2C1=O	1.89
O=C1c2c(O)c(=O)nc(CC3(c4ccc(Cl)cc4)CCCC3)n2CCN1Cc1ccccc1	0.99
O=C1NCCn2c(CC3(c4ccc(Cl)cc4)CCCC3)nc(=O)c(O)c21	1.27
CC(C)N1CCn2c(CC3(c4ccccn4)CCCC3)nc(=O)c(O)c2C1=O	0.097
CN1CCn2c(CC3(c4ccccn4)CCCC3)nc(=O)c(O)c2C1=O	0.063
CC(C)N1CCn2c(Cc3c(Cl)cccc3Cl)nc(=O)c(O)c2C1=O [drawing 10]	0.392
CC(C)N1CCn2c(Cc3c(Cl)cccc3Cl)nc(=O)c(O)c2C1=O [drawing 18]	0.39
O=C1NCCn2c(CC3(c4cccc5ccccc45)CCCC3)nc(=O)c(O)c21 [drawing 712]	0.162
O=C1NCCn2c(CC3(c4cccc5ccccc45)CCCC3)nc(=O)c(O)c21 [drawing 722]	0.16
